Measurements taken from patent US20160083391A1, “TRICYCLIC PIPERAZINE DERIVATIVE” (Sunovion Pharmaceuticals Inc., priority 2014, published 2016).

Test system: PDE1
Assay: In vitro HTRF PDE1 inhibition assay
Format: biochemical
Details: HTRF cGMP assay, 100 nM cyclic GMP, PDE (1A3, 1B or 1C) with calmodulin, 45 minutes at 37° C.; isoform of the tabulated values not stated
Outline: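 HTRF cGMP competition assay: PDE1A3, 1B or 1C with calmodulin acting on 100 nM cGMP in 1% DMSO, pH 7.4 buffer with Ca2+ and Mg2+, 45 min at 37 °C. Remaining cGMP detected with d2-cGMP and anti-cGMP cryptate (665/615 nm); IC50 reported as banded categories.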

Row | SMILES | IC50 [nM]
1 | CCCn1ncc2c(=O)n3c(nc21)CN(c1ccc(Cl)cc1)CC3 [Compound I-167, 8-(4-Chlorophenyl)-1-propyl-6,7,8,9-tetrahydropyrazino[1,2-a]pyrazolo[3,4-d]pyrimidin-4(1H)-one] | < 1000
2 | CC(C)n1ncc2c(=O)n3c(nc21)CN(Cc1ccccc1)CC3 [Compound I-29, 8-Benzyl-1-isopropyl-6,7,8,9-tetrahydropyrazino[1,2-a]pyrazolo[3,4-d]pyrimidin-4(1H)-one] | 1000 to 10000
3 | COc1ccc(C(=O)N2CCn3c(nc4c(cnn4C4CCCC4)c3=O)C2)cc1 [Compound I-116, 1-Cyclopentyl-8-(4-methoxybenzoyl)-6,7,8,9-tetrahydropyrazino[1,2-a]pyrazolo[3,4-d]pyrimidin-4(1H)-one] | < 1000
4 | O=c1c2c(Nc3ccccc3)n[nH]c2nc2n1CCNC2 [Compound I-16, 3-(Phenylamino)-6,7,8,9-tetrahydropyrazino[1,2-a]pyrazolo[3,4-d]pyrimidin-4(1H)-one] | > 10000
5 | CC(C)n1ncc2c(=O)n3c(nc21)CN(Cc1cccc(Cl)c1)CC3 [Compound I-70, 8-(3-Chlorobenzyl)-1-isopropyl-6,7,8,9-tetrahydropyrazino[1,2-a]pyrazolo[3,4-d]pyrimidin-4(1H)-one] | < 1000
6 | COc1ccc(CN2CCn3c(nc4c(nnn4C4CCCC4)c3=O)C2)cc1 [Compound I-127, 3-Cyclopentyl-6-(4-methoxybenzyl)-5,6,7,8-tetrahydropyrazino[1,2-a][1,2,3]triazolo[4,5-d]pyrimidin-10(3H)-one] | > 10000
7 | O=c1c2cnn(C3CCCC3)c2nc2n1CCN(c1ccc(Cl)cc1)C2 [Compound I-93, 8-(4-Chlorophenyl)-1-cyclopentyl-6,7,8,9-tetrahydropyrazino[1,2-a]pyrazolo[3,4-d]pyrimidin-4(1H)-one] | < 1000
8 | CC(C)n1ncc2c(=O)n3c(nc21)CN(c1cccc(Cl)c1)CC3 [Compound I-88, 8-(3-Chlorophenyl)-1-isopropyl-6,7,8,9-tetrahydropyrazino[1,2-a]pyrazolo[3,4-d]pyrimidin-4(1H)-one] | < 1000
9 | O=c1c2cnn(C3CCCC3)c2nc2n1CCN(Cc1ccccc1Cl)C2 [Compound I-69, 8-(2-Chlorobenzyl)-1-cyclopentyl-6,7,8,9-tetrahydropyrazino[1,2-a]pyrazolo[3,4-d]pyrimidin-4(1H)-one] | < 1000
10 | CC(C)c1n[nH]c2c(=O)n3c(nc12)C(C)N(Cc1ccccc1)CC3 (racemic) [Compound I-44, (±)-6-Benzyl-3-isopropyl-5-methyl-5,6,7,8-tetrahydropyrazino[1,2-a]pyrazolo[4,3-d]pyrimidin-10(1H)-one] | > 10000
11 | CC(C)CC1c2nc3c(cnn3C(C)C)c(=O)n2CCN1Cc1ccccc1 (racemic) [Compound I-56, (±)-8-benzyl-9-isobutyl-1-isopropyl-6,7,8,9-tetrahydropyrazino[1,2-a]pyrazolo[3,4-d]pyrimidin-4(1H)-one] | 1000 to 10000
12 | CC(C)c1n[nH]c2c(=O)n3c(nc12)C(Cc1ccccc1)N(C)CC3 (racemic) [Compound I-39, (±)-5-Benzyl-3-isopropyl-6-methyl-5,6,7,8-tetrahydropyrazino[1,2-a]pyrazolo[4,3-d]pyrimidin-10(1H)-one] | > 10000
13 | COc1ccc(CN2CCCn3c(nc4c(cnn4C(C)C)c3=O)C2)cc1 [Compound I-156, 1-Isopropyl-9-(4-methoxybenzyl)-7,8,9,10-tetrahydro-1H-pyrazolo[3′,4′:4,5]pyrimido[1,2-a][1,4]diazepin-4(6H)-one] | 1000 to 10000
14 | CC1c2nc3c(cnn3C3CCCC3)c(=O)n2CCN1Cc1ccc(Cl)cc1 (racemic) [Compound I-117, (±)-8-(4-Chlorobenzyl)-1-cyclopentyl-9-methyl-6,7,8,9-tetrahydropyrazino[1,2-a]pyrazolo[3,4-d]pyrimidin-4(1H)-one] | 1000 to 10000
15 | COc1ccc(CN2CCn3c(nc4c(ncn4C4CCCC4)c3=O)C2)cc1 [Compound I-125, 3-Cyclopentyl-6-(4-methoxybenzyl)-5,6,7,8-tetrahydropyrazino[1,2-a]purin-10(3H)-one] | > 10000
16 | CC(C)n1ncc2c(=O)n3c(nc21)CN(c1cccnc1)CC3 [Compound I-143, 1-Isopropyl-8-(pyridin-3-yl)-6,7,8,9-tetrahydropyrazino[1,2-a]pyrazolo[3,4-d]pyrimidin-4(1H)-one] | 1000 to 10000
17 | O=c1c2cn[nH]c2nc2n1CCNC2Cc1ccccc1 (racemic) [Compound I-6, (±)-9-Benzyl-6,7,8,9-tetrahydropyrazino[1,2-a]pyrazolo[3,4-d]pyrimidin-4(1H)-one] | > 10000
18 | CC(C)n1ncc2c(=O)n3c(nc21)CN(Cc1ccncc1)CC3 [Compound I-136, 1-Isopropyl-8-(pyridin-4-ylmethyl)-6,7,8,9-tetrahydropyrazino[1,2-a]pyrazolo[3,4-d]pyrimidin-4(1H)-one] | 1000 to 10000
19 | Cn1ncc2c(=O)n3c(nc21)CN(Cc1ccccc1)CC3 [Compound I-28, 8-Benzyl-1-methyl-6,7,8,9-tetrahydropyrazino[1,2-a]pyrazolo[3,4-d]pyrimidin-4(1H)-one] | > 10000
20 | CCC1Cn2c(nc3c(cnn3C(C)C)c2=O)CN1c1ccc(Cl)cc1 (racemic) [Compound I-155, (±)-8-(4-Chlorophenyl)-7-ethyl-1-isopropyl-6,7,8,9-tetrahydropyrazino[1,2-a]pyrazolo[3,4-d]pyrimidin-4(1H)-one] | 1000 to 10000
21 | CN1CCn2c(nc3[nH]ncc3c2=O)C1Cc1ccccc1 (racemic) [Compound I-23, (±)-9-Benzyl-8-methyl-6,7,8,9-tetrahydropyrazino[1,2-a]pyrazolo[3,4-d]pyrimidin-4(1H)-one] | > 10000

Further lines, results first:

Row | IC50 [nM] | SMILES
22 | 1000 to 10000 | Cc1ncc(CN2CCn3c(nn4c(C5CCCC5)ncc4c3=O)C2)cn1 [Compound I-197, 3-Cyclopentyl-7-((2-methylpyrimidin-5-yl)methyl)-8,9-dihydro-6H-imidazo[5,1-f]pyrazino[2,1-c][1,2,4]triazin-11(7H)-one]
23 | 1000 to 10000 | CCCn1ncc2c(=O)n3c(nc21)CN(Cc1ccc2c(c1)OCO2)CC3 [Compound I-255, 8-(Benzo[d][1,3]dioxol-5-ylmethyl)-1-propyl-6,7,8,9-tetrahydropyrazino[1,2-a]pyrazolo[3,4-d]pyrimidin-4(1H)-one]
24 | < 1000 | O=c1c2cnc(C3CCOCC3)n2nc2n1CCN(Cc1ccc(Cl)cc1)C2 [Compound I-235, 7-(4-Chlorobenzyl)-3-(tetrahydro-2H-pyran-4-yl)-8,9-dihydro-6H-imidazo[5,1-f]pyrazino[2,1-c][1,2,4]triazin-11(7H)-one]
25 | > 10000 | Cc1ncc(CN2CCn3c(nc4c(cnn4C(C)C)c3=O)C2)cn1 [Compound I-194, 1-Isopropyl-8-((2-methylpyrimidin-5-yl)methyl)-6,7,8,9-tetrahydropyrazino[1,2-a]pyrazolo[3,4-d]pyrimidin-4(1H)-one]
26 | 1000 to 10000 | CC(C)Cc1nnc2c(=O)n3c(nn12)CN(Cc1ccccn1)CC3 [Compound I-224, 3-Isobutyl-7-(pyridin-2-ylmethyl)-8,9-dihydro-6H-pyrazino[2,1-c][1,2,4]triazolo[3,4-f][1,2,4]triazin-11(7H)-one]
27 | < 1000 | CCOc1cc(N2CCn3c(nn4c(C5CCCC5)ncc4c3=O)C2)ccc1F [Compound I-184, 3-Cyclopentyl-7-(3-ethoxy-4-fluorophenyl)-8,9-dihydro-6H-imidazo[5,1-f]pyrazino[2,1-c][1,2,4]triazin-11(7H)-one]
28 | 1000 to 10000 | O=c1c2cnc(C3CCCC3)n2nc2n1CCN(c1ccncc1)C2 [Compound I-185, 3-Cyclopentyl-7-(pyridin-4-yl)-8,9-dihydro-6H-imidazo[5,1-f]pyrazino[2,1-c][1,2,4]triazin-11(7H)-one]
29 | 1000 to 10000 | O=c1c2cnc(C3CCCC3)n2nc2n1CCN(Cc1cncnc1)C2 [Compound I-193, 3-Cyclopentyl-7-(pyrimidin-5-ylmethyl)-8,9-dihydro-6H-imidazo[5,1-f]pyrazino[2,1-c][1,2,4]triazin-11(7H)-one]
30 | > 10000 | Cc1cnc(CN2CCn3c(nc4c(cnn4C(C)C)c3=O)C2)nc1 [Compound I-198, 1-Isopropyl-8-((5-methylpyrimidin-2-yl)methyl)-6,7,8,9-tetrahydropyrazino[1,2-a]pyrazolo[3,4-d]pyrimidin-4(1H)-one]
31 | 1000 to 10000 | CC(C)(C)c1ncc2c(=O)n3c(nn12)CN(c1ccc(Cl)cc1)CC3 [Compound I-250, 3-(tert-Butyl)-7-(4-chlorophenyl)-8,9-dihydro-6H-imidazo[5,1-f]pyrazino[2,1-c][1,2,4]triazin-11(7H)-one]
32 | < 1000 | CC(C)Cc1nnc2c(=O)n3c(nn12)CN(Cc1ccc(Cl)cc1)CC3 [Compound I-215, 7-(4-Chlorobenzyl)-3-isobutyl-8,9-dihydro-6H-pyrazino[2,1-c][1,2,4]triazolo[3,4-f][1,2,4]triazin-11(7H)-one]
33 | 1000 to 10000 | Cc1cnc(CN2CCn3c(nn4c(C(C)C)ncc4c3=O)C2)nc1 [Compound I-200]
34 | 1000 to 10000 | O=c1c2cnc(C3CCOC3)n2nc2n1CCN(Cc1ccc(Cl)cc1)C2 (racemic) [Compound I-233, (±)-7-(4-Chlorobenzyl)-3-(tetrahydrofuran-3-yl)-8,9-dihydro-6H-imidazo[5,1-f]pyrazino[2,1-c][1,2,4]triazin-11(7H)-one]
35 | < 1000 | O=c1c2cnn(C3CCOCC3)c2nc2n1CCN(Cc1ccc(Cl)cc1)C2 [Compound I-211, 8-(4-Chlorobenzyl)-1-(tetrahydro-2H-pyran-4-yl)-6,7,8,9-tetrahydropyrazino[1,2-a]pyrazolo[3,4-d]pyrimidin-4(1H)-one]
36 | < 1000 | COc1ccc(CN2CCn3c(nn4c(CC(C)C)nnc4c3=O)C2)cc1 [Compound I-213, 3-Isobutyl-7-(4-methoxybenzyl)-8,9-dihydro-6H-pyrazino[2,1-c][1,2,4]triazolo[3,4-f][1,2,4]triazin-11(7H)-one]
